Laboratory results published in patent US10294202B2, “Pyrrolidinones as herbicides” (FMC Corporation, priority 2013, dated 2019).

Legend:
[1] = tested on: barnyardgrass; experiment: Test A pre-/postemergence herbicide test; format: in vivo, Echinochloa crus-galli
In short: (§1)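 Greenhouse pot test with pre- and postemergence application of surfactant-containing solvent formulations. Postemergence plants were 2–10 cm, one- to two-leaf stage. Response scored visually after ~10 days, 0 (no effect) to 100 (complete control).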

[2] = tested on: kochia; experiment: Test A pre-/postemergence herbicide test; format: in vivo, Kochia scoparia
In short: as §1

[3] = tested on: ragweed; experiment: Test A pre-/postemergence herbicide test; format: in vivo, Ambrosia elatior
In short: as §1

[4] = tested on: ryegrass, Italian; experiment: Test A pre-/postemergence herbicide test; format: in vivo, Lolium multiflorum
In short: as §1

[5] = tested on: giant foxtail; experiment: Test A pre-/postemergence herbicide test; format: in vivo, Setaria faberii
In short: as §1

[6] = tested on: pigweed; experiment: Test A pre-/postemergence herbicide test; format: in vivo, Amaranthus retroflexus
In short: as §1

[7] = tested on: wheat; experiment: Test A pre-/postemergence herbicide test; format: in vivo, Triticum aestivum; details: Postemergence
In short: as §1

[8] = tested on: corn; experiment: Test A pre-/postemergence herbicide test; format: in vivo, Zea mays; details: Postemergence
In short: as §1

[9] = tested on: blackgrass; experiment: Test A postemergence herbicide test; format: in vivo, Alopecurus myosuroides
In short: (§2)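 Visual injury rating, 0 (no effect) to 100 (complete control), versus untreated controls ~10 days after treatment. Postemergence spray applied at one- to two-leaf stage, plants 2–10 cm tall, potted in loam soil/sand. Greenhouse-held.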

[10] = tested on: galium; experiment: Test A postemergence herbicide test; format: in vivo, Galium aparine
In short: as §2

[11] = tested on: rice; experiment: Test B flooded paddy test; format: in vivo, Oryza sativa; details: 500 g ai/ha, Flood; scale of 0 to 100 where 0 is no effect and 100 is complete control
In short: (§3)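 Scoring: visual, compared with untreated controls, 0 = no effect through 100 = complete control, taken 13 to 15 days after treatment in the greenhouse. Compounds had been added to paddy water over soil flooded 3 cm deep at the plants' 2-leaf stage.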

[12] = tested on: sedge, umbrella; experiment: Test B flooded paddy test; format: in vivo, Cyperus difformis; details: 500 g ai/ha, Flood; scale of 0 to 100 where 0 is no effect and 100 is complete control
In short: as §3

[13] = tested on: ducksalad; experiment: Test B flooded paddy test; format: in vivo, Heteranthera limosa; details: 500 g ai/ha, Flood; scale of 0 to 100 where 0 is no effect and 100 is complete control
In short: as §3

[14] = tested on: barnyardgrass; experiment: Test B flooded paddy test; format: in vivo, Echinochloa crus-galli; details: 500 g ai/ha, Flood; scale of 0 to 100 where 0 is no effect and 100 is complete control
In short: as §3

[15] = 125 g ai/ha, visual rating, 0 to 100 scale, 0 no effect, 100 complete control, approximately 10 days, preemergence
[16] = Postemergence, 125 g ai/ha, 0 to 100 scale, 0 is no effect, 100 is complete control
[17] = Postemergence, 500 g ai/ha, 0 to 100 scale (0 no effect, 100 complete control)
[18] = preemergence, 500 g ai/ha, 0 to 100 scale, 0 is no effect and 100 is complete control
[19] = 125 g ai/ha, 0 to 100 scale, 0 is no effect, 100 is complete control
[20] = 500 g ai/ha, 0 to 100 scale (0 no effect, 100 complete control)
[21] = Preemergence, 125 g ai/ha, 0 to 100 scale where 0 is no effect and 100 is complete control
[22] = Postemergence, 125 g ai/ha, visual rating on 0 to 100 scale (0 no effect, 100 complete control), approx. 10 days
[23] = 125 g ai/ha, visual rating on 0 to 100 scale (0 no effect, 100 complete control), approx. 10 days

| SMILES | Plant response rating, Barnyardgrass [1, 16] | Plant response rating, Barnyardgrass [1, 17] | Plant response rating, Barnyardgrass [1, 18] | Plant response rating, Kochia [2, 17] | Plant response rating, Kochia [2, 18] | Plant response rating, Ragweed [3, 17] | Plant response rating, Ragweed [3, 18] | Plant response rating, Ryegrass, Italian [4, 17] | Plant response rating, Foxtail, Giant [5, 17] | Plant response rating, Foxtail, Giant [5, 18] | Plant response rating, Pigweed [6, 17] | Plant response rating, Pigweed [6, 18] | Plant response rating, Wheat [7, 20] | Plant response rating, Corn [8, 20] | Plant response rating, Blackgrass [9, 20] | Plant response rating, Galium [10, 20] | Plant response rating, Rice [11] | Plant response rating, Sedge, Umbrella [12] | Plant response rating, Ducksalad [13] | Plant response rating, Barnyardgrass [14] | further results |
| --- | --- | --- | --- | --- | --- | --- | --- | --- | --- | --- | --- | --- | --- | --- | --- | --- | --- | --- | --- | --- | --- |
| O=C1NCC(c2ccc(F)cc2)C1C(=O)Nc1ccccc1F (stereo not drawn) [Compound 239] | 50 | 90 | 90 | 20 | 70 | 0 | 90 | 20 | 90 | 90 | 0 | 0 | 20 | 0 | 20 | 30 | 0 | 0 | 100 | 50 | Plant response rating, Barnyardgrass [1, 15]: 50; Plant response rating, Kochia [2, 15]: 0; Plant response rating, Kochia [2, 16]: 0; Plant response rating, Ragweed [3, 15]: 0; Plant response rating, Ragweed [3, 16]: 0; Plant response rating, Ryegrass, Italian [4, 15]: 0; Plant response rating, Ryegrass, Italian [4, 16]: 0; Plant response rating, Ryegrass, Italian [4, 18]: 0; Plant response rating, Foxtail, Giant [5, 15]: 80; Plant response rating, Foxtail, Giant [5, 16]: 50; Plant response rating, Pigweed [6, 15]: 0; Plant response rating, Pigweed [6, 16]: 0; Plant response rating, Wheat [7, 19]: 0; Plant response rating, Corn [8, 19]: 0; Plant response rating, Blackgrass [9, 19]: 20; Plant response rating, Galium [10, 19]: 0 |
| CC(C)N1CC(c2ccc(F)cc2)C(C(=O)Nc2cccc(F)c2F)C1=O (stereo not drawn) [Compound 276] | 0 | 0 | 0 | 0 | 0 | 0 | 0 | 0 | 0 | 0 | 0 | 0 | 0 | 0 | 0 | 0 | 0 | 0 | 30 | 0 | Plant response rating, Barnyardgrass [1, 21]: 0; Plant response rating, Kochia [2, 16]: 0; Plant response rating, Kochia [2, 21]: 0; Plant response rating, Ragweed [3, 22]: 0; Plant response rating, Ragweed [3, 21]: 0; Plant response rating, Ryegrass, Italian [4, 22]: 0; Plant response rating, Ryegrass, Italian [4, 21]: 0; Plant response rating, Ryegrass, Italian [4, 18]: 0; Plant response rating, Foxtail, Giant [5, 16]: 0; Plant response rating, Foxtail, Giant [5, 21]: 0; Plant response rating, Pigweed [6, 22]: 0; Plant response rating, Pigweed [6, 21]: 0; Plant response rating, Wheat [7, 23]: 0; Plant response rating, Corn [8, 19]: 0; Plant response rating, Blackgrass [9, 19]: 0; Plant response rating, Galium [10, 19]: 0 |
| O=C1NCC(c2ccc(Cl)o2)C1C(=O)Nc1ccccc1F (stereo not drawn) [Compound 284] | – | 50 | 60 | 0 | 30 | 0 | 0 | 0 | 10 | 70 | 0 | 40 | 0 | 0 | 0 | 60 | 10 | 0 | 80 | 0 | Plant response rating, Barnyardgrass [1, 22]: 0; Plant response rating, Barnyardgrass [1, 21]: 0; Plant response rating, Kochia [2, 22]: 0; Plant response rating, Kochia [2, 21]: 0; Plant response rating, Ragweed [3, 22]: 0; Plant response rating, Ragweed [3, 21]: 0; Plant response rating, Ryegrass, Italian [4, 22]: 0; Plant response rating, Ryegrass, Italian [4, 21]: 0; Ryegrass, Italian plant response rating ([4]; Preemergence, 500 g ai/ha, visual rating on 0 to 100 scale (0 no effect, 100 complete control)): 0; Plant response rating, Foxtail, Giant [5, 22]: 0; Plant response rating, Foxtail, Giant [5, 21]: 40; Plant response rating, Pigweed [6, 22]: 0; Plant response rating, Pigweed [6, 21]: 0; Plant response rating, Wheat [7, 23]: 0; Plant response rating, Corn [8, 23]: 0; Plant response rating, Blackgrass [9, 23]: 0; Plant response rating, Galium [10, 23]: 0 |
